Legend:
Assay type in all cases: in vivo
[1] = system: CASSIA OBTUSIFOLIA, L.; assay: Postemergence herbicidal evaluation, CASOB (Sicklepod); conditions: rated four to five weeks after treatment, averaged
Summary of the method: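 Spray: acetone/water 50/50 + 0.5% TWEEN 20; rate ~0.125–0.500 kg/ha; nozzle 40 psi; ~2-wk seedlings. Read: visual 0–9 rating at 4–5 wk post-treatment vs control; replicate tests averaged.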

[2] = system: CHENOPODIUM ALBUM, L.; assay: Preemergence herbicidal evaluation, CHEAL (Lambsquarters, Common); conditions: for CHEAL rating: four to five weeks after treatment; for CHEAL herbicidal rating: rated four to five weeks after treatment
Summary of the method: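 Seeds sown in potting soil cups, then sprayed preemergence with aqueous acetone compound solution at about 0.125 to 0.50 kg per hectare. Greenhouse-grown, rated 4–5 weeks after treatment on a 0–9 visual scale against control.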

[3] = system: AMBROSIA ARTEMISIIFOLIA, L.; assay: Postemergence herbicidal evaluation, AMBEL (Ragweed, Common); conditions: rated four to five weeks after treatment, averaged
Summary of the method: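 Postemergence herbicidal activity on AMBEL (common ragweed) was assessed on two-week-old seedlings grown in jiffy flats. Treatment solutions of 50/50 acetone/water with 0.5% TWEEN®20 surfactant were sprayed at 40 psi. After four to five weeks in the greenhouse, plants were scored 0-9 against a control for stand, vigor, malformation, size, chlorosis and overall appearance, with multiple tests averaged.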

[4] = system: CHENOPODIUM ALBUM, L.; assay: Postemergence herbicidal evaluation, CHEAL (Lambsquarters, Common); conditions: rated four to five weeks after treatment, averaged
Summary of the method: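 Postemergence herbicidal activity on Chenopodium album was tested by spraying two-week-old seedlings grown in jiffy flats with compound in acetone/water (50/50) plus 0.5% TWEEN®20, using a 40 psi nozzle. Four to five weeks after treatment, stand, vigor, malformation, size, chlorosis and overall appearance were scored 0-9 relative to controls, with repeat tests averaged.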

[5] = system: SAGITTARIA PYGMAEA, L.; assay: Preemergence weed control under flooded paddy conditions, SAGPY (Arrowhead (Pygmaea)); conditions: preemergence weeds, rated three to four weeks after treatment
Summary of the method: (§1)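 Visual 0-9 rating against untreated control, covering stand, vigor, malformation, size and chlorosis, scored three to four weeks post-treatment in a greenhouse. Application was into 1.5-3 cm flood water over silt loam sown at 0.5 cm. The 50/50 v/v aqueous/acetone doses were about 0.5, 0.25, 0.125 and 0.063 kg/ha.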

[6] = system: ECHINOCHLOA CRUS-GALLI, (L) BEAU; assay: Preemergence herbicidal evaluation, ECHCG (Barnyardgrass); conditions: for ECHCG rating: four to five weeks after treatment; for ECHCG herbicidal rating: rated four to five weeks after treatment
Text: (§2) Results of herbicide evaluation are expressed on a rating scale (0-9). The scale is based upon a visual observation of plant stand, vigor, malformation, size, chlorosis and overall plant appearance as compared with a control.
(§3) The preemergence herbicidal activity of the test compounds of the present invention is exemplified by the following tests in which the seeds of a variety of monocotyledonous and dicotyledonous plants are separately mixed with potting soil and planted on top of approximately one inch of soil in separate pint cups. […] The treated cups are then placed on greenhouse benches, watered and cared for in accordance with conventional greenhouse procedures. From four to five weeks after treatment, the tests are terminated and each cup is examined and rated according to the rating system provided in Example 40.
(§4) The compounds evaluated are reported by compound number given in Example 40.

[7] = system: IPOMOEA SPP.; assay: Postemergence herbicidal evaluation, IPOSS (Morningglory spp.); conditions: rated four to five weeks after treatment, averaged
Summary of the method: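 In this greenhouse postemergence herbicide test on Ipomoea spp. (morningglory), compounds in 50/50 acetone/water with 0.5% TWEEN®20 were sprayed at 40 psi onto seedlings about two weeks old grown in jiffy flats. After four to five weeks, injury was scored on a 0-9 scale covering stand, vigor, malformation, size, chlorosis and overall appearance versus control, with repeat tests averaged.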

[8] = system: ORYZA SATIVA, L. TEBONNET; assay: Rice tolerance to post-transplant applications under flooded paddy conditions, ORYSAT (Rice, Tebonnet); conditions: post-transplant rice; for ORYSAT herbicidal rating (rice tolerance): rated three to four weeks after treatment; for Herbicidal effect rating, ORYSAT: 3-4 weeks after treatment;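 on ORYSAT herbicidal rating (rice tolerance): applied to flooded soil surface three days after transplanting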
Summary of the method: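 Rated on a visual 0–9 scale against untreated plants 3–4 weeks after application, rice (cv. Tebonnet) tolerance was tested by applying compounds (approx. 0.5–0.063 kg/ha, acetone/water 50/50) to flooded soil three days post-transplant, water kept 1.5–3 cm deep.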

[9] = system: ECHINOCHLOA ORYZOIDES (ARD.)FRITSCH; assay: Preemergence weed control under flooded paddy conditions, ECHORC (Watergrass (Calif.)); conditions: for ECHORC herbicidal rating: preemergence weeds, rated three to four weeks after treatment; for Herbicidal effect rating, ECHORC: preemergence, 3-4 weeks after treatment
Summary of the method: as §1

[10] = system: ABUTILON THEOPHRASTI, MEDIC.; assay: Postemergence herbicidal evaluation, ABUTH (Velvetleaf); conditions: rated four to five weeks after treatment, averaged
Summary of the method: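 This postemergence herbicide test used two-week-old velvetleaf seedlings grown in jiffy flats. Each compound was sprayed at 40 psi as a dispersion in 50/50 acetone/water with 0.5% TWEEN®20 surfactant. Plants then received routine greenhouse care. After four to five weeks, injury was scored visually on a 0-9 scale against a control, and replicate tests were averaged.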

[11] = system: ZEA MAYS L.; assay: Preemergence herbicidal evaluation, ZEAMX (Corn, Field); conditions: for ZEAMX rating: four to five weeks after treatment; for ZEAMX herbicidal rating: rated four to five weeks after treatment
Text: as §2, §3, §4

[12] = system: GLYCINE MAX(L) MERR. CV. WILLIAMS; assay: Preemergence herbicidal evaluation, GLXMAW (Soybean, Williams); conditions: four to five weeks after treatment
Text: as §2, §3, §4

[13] = system: CASSIA OBTUSIFOLIA, L.; assay: Preemergence herbicidal evaluation, CASOB (Sicklepod); conditions: four to five weeks after treatment
Text: as §2, §3, §4

[14] = system: SETARIA VIRIDIS, (L) BEAU; assay: Postemergence herbicidal evaluation, SETVI (Foxtail, Green); conditions: rated four to five weeks after treatment, averaged
Protocol: In the tests, seedling plants are grown in jiffy flats for about two weeks. The test compounds are dispersed in 50/50 acetone/water mixtures containing 0.5% TWEEN®20, a polyoxyethylene sorbitan monolaurate surfactant of Atlas Chemical Industries, in sufficient quantities to provide the equivalent of about 0.125 kg to 0.500 kg per hectare of active compound when applied to the plants through a spray nozzle operating at 40 psi for a predetermined time. After spraying, the plants are placed on greenhouse benches and are cared for in the usual manner, commensurate with conventional greenhouse practices. From four to five weeks after treatment, the seedling plants are examined and rated according to the rating system set forth below. Where more than one test is involved for a given compound, the data are averaged.
Plant species employed in these evaluations are reported by header abbreviation, common name and scientific name.
as §2

[15] = system: […], PRESL.; assay: Preemergence weed control under flooded paddy conditions, MOOVA (Monochoria); conditions: preemergence, 3-4 weeks after treatment
Summary of the method: as §1

[16] = system: GALIUM APARINE; assay: Preemergence herbicidal evaluation, GALAP (Galium); conditions: rated four to five weeks after treatment
Text: as §2, §3, §4

## CCOC(=O)Cn1c(=O)n(C)c(=O)n(-c2cc(Oc3c(F)cc(C(F)(F)F)cc3Cl)ccc2C#N)c1=O [Compound 11, Ethyl 3-{5-[(2-chloro-α,α,α,6-tetrafluoro-p-tolyl)oxy]-2-cyanophenyl}tetrahydro-5-methyl-2,4,6-trioxo-s-triazine-1(2H)-acetate]
[1]; Rate 0.125 kg/ha
  CASOB, herbicide rating (0-9): 9.0
[1]; Rate 0.250 kg/ha
  CASOB, herbicide rating (0-9): 9.0
[1]; Rate 0.500 kg/ha
  CASOB, herbicide rating (0-9): 9.0
[2]; Rate 0.125 kg/ha
  CHEAL rating: 9.0
[2]; Rate 0.250 kg/ha
  CHEAL rating: 9.0
[2]; Rate 0.500 kg/ha
  CHEAL rating: 9.0
[3]; Rate 0.125 kg/ha
  AMBEL, herbicide rating (0-9): 9.0
[3]; Rate 0.250 kg/ha
  AMBEL, herbicide rating (0-9): 9.0
[3]; Rate 0.500 kg/ha
  AMBEL, herbicide rating (0-9): 9.0
[4]; Rate 0.125 kg/ha
  CHEAL, herbicide rating (0-9): 9.0
[4]; Rate 0.250 kg/ha
  CHEAL, herbicide rating (0-9): 9.0
[4]; Rate 0.500 kg/ha
  CHEAL, herbicide rating (0-9): 9.0
[5]; Rate 0.063 kg/ha
  SAGPY herbicidal rating: 0.0
[5]; Rate 0.125 kg/ha
  SAGPY herbicidal rating: 0.0
[5]; Rate 0.250 kg/ha
  SAGPY herbicidal rating: 0.0
[5]; Rate 0.500 kg/ha
  SAGPY herbicidal rating: 0.0
[6]; Rate 0.125 kg/ha
  ECHCG rating: 0.0
[6]; Rate 0.250 kg/ha
  ECHCG rating: 0.0
[6]; Rate 0.500 kg/ha
  ECHCG rating: 0.0
[7]; Rate 0.125 kg/ha
  IPOSS, herbicide rating (0-9): 9.0
[7]; Rate 0.250 kg/ha
  IPOSS, herbicide rating (0-9): 9.0
[7]; Rate 0.500 kg/ha
  IPOSS, herbicide rating (0-9): 9.0
[8]; Rate 0.063 kg/ha
  ORYSAT herbicidal rating (rice tolerance): 0.0
[8]; Rate 0.125 kg/ha
  ORYSAT herbicidal rating (rice tolerance): 0.0
[8]; Rate 0.250 kg/ha
  ORYSAT herbicidal rating (rice tolerance): 1.0
[8]; Rate 0.500 kg/ha
  ORYSAT herbicidal rating (rice tolerance): 1.0
[9]; Rate 0.063 kg/ha
  ECHORC herbicidal rating: 9.0
[9]; Rate 0.125 kg/ha
  ECHORC herbicidal rating: 9.0
[9]; Rate 0.250 kg/ha
  ECHORC herbicidal rating: 9.0
[9]; Rate 0.500 kg/ha
  ECHORC herbicidal rating: 9.0
[10]; Rate 0.125 kg/ha
  ABUTH, herbicide rating (0-9): 9.0
[10]; Rate 0.250 kg/ha
  ABUTH, herbicide rating (0-9): 9.0
[10]; Rate 0.500 kg/ha
  ABUTH, herbicide rating (0-9): 9.0
[11]; Rate 0.125 kg/ha
  ZEAMX rating: 0.0
[11]; Rate 0.250 kg/ha
  ZEAMX rating: 0.0
[11]; Rate 0.500 kg/ha
  ZEAMX rating: 0.0
[12]; Rate 0.125 kg/ha
  GLXMAW rating: 0.0
[12]; Rate 0.250 kg/ha
  GLXMAW rating: 0.0
[12]; Rate 0.500 kg/ha
  GLXMAW rating: 0.0
[13]; Rate 0.125 kg/ha
  CASOB rating: 0.0
[13]; Rate 0.250 kg/ha
  CASOB rating: 0.0
[13]; Rate 0.500 kg/ha
  CASOB rating: 0.0
[14]; Rate 0.125 kg/ha
  SETVI, herbicide rating (0-9): 9.0
[14]; Rate 0.250 kg/ha
  SETVI, herbicide rating (0-9): 9.0
[14]; Rate 0.500 kg/ha
  SETVI, herbicide rating (0-9): 9.0

## Cn1c(=O)n(CC(=O)OC(C)(C)C)c(=O)n(-c2cc(Oc3c(F)cc(C(F)(F)F)cc3Cl)ccc2[N+](=O)[O-])c1=O [Compound 17, Tert-butyl 3-{5-[(2-chloro-α,α,α,6-tetra-fluoro-p-tolyl)oxy]-2-nitrophenyl}tetra-hydro-5-methyl-2,4,6-trioxo-s-triazine-1(2H)-acetate]
[15]; 0.125 kg/ha
  Herbicidal effect rating, MOOVA: 9.0
[15]; 0.250 kg/ha
  Herbicidal effect rating, MOOVA: 9.0
[15]; 0.500 kg/ha
  Herbicidal effect rating, MOOVA: 9.0
[2]; Rate 0.125 kg/ha
  CHEAL herbicidal rating: 9.0
[2]; Rate 0.250 kg/ha
  CHEAL herbicidal rating: 9.0
[2]; Rate 0.500 kg/ha
  CHEAL herbicidal rating: 9.0
[6]; Rate 0.125 kg/ha
  ECHCG herbicidal rating: 0.0
[6]; Rate 0.250 kg/ha
  ECHCG herbicidal rating: 0.0
[6]; Rate 0.500 kg/ha
  ECHCG herbicidal rating: 0.0
[8]; 0.125 kg/ha
  Herbicidal effect rating, ORYSAT: 3.0
[8]; 0.250 kg/ha
  Herbicidal effect rating, ORYSAT: 3.0
[8]; 0.500 kg/ha
  Herbicidal effect rating, ORYSAT: 2.0
[9]; 0.125 kg/ha
  Herbicidal effect rating, ECHORC: 9.0
[9]; 0.250 kg/ha
  Herbicidal effect rating, ECHORC: 9.0
[9]; 0.500 kg/ha
  Herbicidal effect rating, ECHORC: 9.0
[10]; Rate 0.125 kg/ha
  ABUTH, herbicide rating (0-9): 9.0
[10]; Rate 0.250 kg/ha
  ABUTH, herbicide rating (0-9): 9.0
[10]; Rate 0.500 kg/ha
  ABUTH, herbicide rating (0-9): 9.0
[11]; Rate 0.125 kg/ha
  ZEAMX herbicidal rating: 0.0
[11]; Rate 0.250 kg/ha
  ZEAMX herbicidal rating: 0.0
[11]; Rate 0.500 kg/ha
  ZEAMX herbicidal rating: 0.0
[16]; Rate 0.125 kg/ha
  GALAP herbicidal rating: 9.0
[16]; Rate 0.250 kg/ha
  GALAP herbicidal rating: 9.0
[16]; Rate 0.500 kg/ha
  GALAP herbicidal rating: 9.0

From patent publication EP0745595A1, “3-(3-Aryloxyphenyl)-1-(substituted methyl)-s-triazine-2,4,6-oxo or thiotrione herbicidal agents” (American Cyanamid Company, priority 1995, dated 1996)
